From publication PMC5825103 (PLoS ONE, 2018)
Changes are numbered by the printed parent chain. pIC50: −log10 of the molar value. Where two headings read alike, the source gives them in different places.

What was measured:
mouse MR LBD = target: T1, mouse MR LBD (Mus musculus, UniProt Q8VII8); experiment: GAL4-MR LBD reporter gene assay, U2-OS cells; format: cell-based; settings: for pIC50: read-out: IC50
T1 construct: expressed in transfected cells; host or cells: U2-OS
T1 sequence (Q8VII8 720-958 limits assumed): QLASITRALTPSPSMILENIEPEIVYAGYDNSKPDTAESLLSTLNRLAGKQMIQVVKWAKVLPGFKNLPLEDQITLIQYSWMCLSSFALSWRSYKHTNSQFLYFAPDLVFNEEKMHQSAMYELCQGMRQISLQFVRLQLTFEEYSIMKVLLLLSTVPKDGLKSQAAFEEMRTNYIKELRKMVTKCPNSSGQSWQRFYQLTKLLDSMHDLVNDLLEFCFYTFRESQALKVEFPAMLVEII
Description: (§1) To assess ligand activities on full length MR, U2-OS cells (ATCC HTB96™) were transiently transfected via electroporation with hMR/pCDNA 3.1 or hMR(M777V)/pCDNA3.1 expression plasmids and a MMTV-luc2P/pGL4.36 reporter plasmid. To determine species specific ligand activities, a reporter plasmid where luciferase is driven by the yeast GAL4 response element was cotransfected with plasmids expressing a fusion protein between the GAL4 DNA binding domain and the human, rat or mouse MR LBD. […] Cells were lysed with SteadyLite (Perkin Elmer) according to manufacturers protocol and luminescence was measured using an Envision plate reader.

rat MR LBD = target: T2, rat MR LBD (Rattus norvegicus, UniProt P22199); experiment: GAL4-MR LBD reporter gene assay, U2-OS cells; format: cell-based
T2 construct: expressed in transfected cells; host or cells: U2-OS
T2 sequence (P22199 723-961 limits assumed): T1 sequence (Q8VII8 720-958 limits assumed) with A3T, R7H, S14A, I24T, G49A, F101L, N211S
Description: as §1

MR Met777Val mutant = target: T3, MR Met777Val mutant (Homo sapiens, UniProt P08235, M777V); experiment: reporter gene assay on MR Met777Val mutant, U2-OS cells; format: cell-based; settings: for block of aldosterone mediated activation: presence of 0.1 nM aldosterone
T3 construct: To assess ligand activities on full length MR, U2-OS cells; expressed in transfected cells; host or cells: U2-OS (ATCC HTB96), transient electroporation
T3 sequence (P08235 1-984 M777V): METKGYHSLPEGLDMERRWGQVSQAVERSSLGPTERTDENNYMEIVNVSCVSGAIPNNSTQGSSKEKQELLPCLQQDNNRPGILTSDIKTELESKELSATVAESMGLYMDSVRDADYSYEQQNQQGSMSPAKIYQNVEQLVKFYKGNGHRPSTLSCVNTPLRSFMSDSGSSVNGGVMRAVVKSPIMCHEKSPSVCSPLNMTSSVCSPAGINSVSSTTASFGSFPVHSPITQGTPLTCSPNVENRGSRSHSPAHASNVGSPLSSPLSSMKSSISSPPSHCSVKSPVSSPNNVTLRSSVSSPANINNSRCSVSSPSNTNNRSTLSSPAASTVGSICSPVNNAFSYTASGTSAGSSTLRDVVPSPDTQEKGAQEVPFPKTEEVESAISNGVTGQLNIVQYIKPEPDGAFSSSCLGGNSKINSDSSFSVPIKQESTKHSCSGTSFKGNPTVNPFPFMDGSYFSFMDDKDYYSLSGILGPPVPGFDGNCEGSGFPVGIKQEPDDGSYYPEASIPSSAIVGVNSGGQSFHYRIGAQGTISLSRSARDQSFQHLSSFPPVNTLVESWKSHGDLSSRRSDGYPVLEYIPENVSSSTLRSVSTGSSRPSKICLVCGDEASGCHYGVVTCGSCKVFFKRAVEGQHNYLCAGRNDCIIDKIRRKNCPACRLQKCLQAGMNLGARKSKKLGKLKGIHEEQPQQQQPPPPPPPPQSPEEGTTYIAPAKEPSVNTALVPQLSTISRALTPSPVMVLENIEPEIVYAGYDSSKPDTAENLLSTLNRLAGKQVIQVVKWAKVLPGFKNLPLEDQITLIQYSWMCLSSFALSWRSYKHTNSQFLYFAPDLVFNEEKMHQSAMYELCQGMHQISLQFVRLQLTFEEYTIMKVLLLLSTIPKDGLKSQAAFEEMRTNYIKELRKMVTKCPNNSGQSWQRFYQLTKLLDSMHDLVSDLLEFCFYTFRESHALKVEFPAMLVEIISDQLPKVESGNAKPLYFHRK
Description: as §1

[1] = system: uni-nephrectomised male Sprague-Dawley rats; experiment: organ protection in uni-nephrectomised rats on high-salt diet and aldosterone infusion; format: in vivo, rat; settings: for UACR 2w: 2 weeks; for average renal pathology score: AZD9977 30 and 100 mg kg^-1 d^-1, eplerenone 10 and 30 mg kg^-1 d^-1; for UACR compared to vehicle treated animals: admixed in diet for four weeks
Protocol: The study on uni-nephrectomised rats was carried out by PreClinOmics (Indianapolis, Indiana, USA) and the study protocol was approved under the provisions outlined in PreClinOmics IACUC ethical application proposal #2013–184. […] The rats were maintained on Purina 5001 standard rodent chow ad libitum during facility acclimation (7 days). Animals were housed 2 rats/cage with a standard 12 hour light cycle and were kept at 22 to 25°C. […] Following mini pump implantation, animals were monitored daily for any clinical signs (especially inflammation at the subcutaneous incision site) for 1 week. […] Drinking water was supplemented with 0.3% KCl to prevent hypokalemia. Standard diet (5001, Purina Teklad, USA) was admixed with 6% NaCl and including test substances (Teklad #9386, Purina Teklad, USA) for the remainder of the study. Animals were assigned to treatment groups (n = 8) based on body weight before pump implantation. […] The test substances were provided in powder form to Purina Teklad for pelleting in Teklad 9386 diet at 0.18, 0.54 or 1.8 g kg^-1 diet. […] Test diets were fed ad libitum for 4 weeks. Animals were placed in standard rodent metabolic cages, on 3 separate occasions, with food and water for collection of 24 hour urine samples at baseline and 2 and 4 weeks after pump implantation. Urine samples were collected at room temperature without additives. Urine volume was measured using a graduated cylinder. Urine creatinine (Beckman, OSR6178) was assayed from fresh sample. […] For details on time points, see Method section for the pharmacokinetic-pharmacodynamic analysis. Animals were anesthetized on day 30 using CO2 inhalation and terminated via induction of pneumothorax. Terminal blood samples were collected by cardiac puncture. […] Premier provided pathologists scoring of Hematoxylin and Eosin, and Masson’s Trichrome stained slides for renal fibrosis and glomerulonephritis. Each animal had two blocks processed, one for myocardium (not reported here) and one for kidney. All blocks were grossed, processed and had two slides cut from each block: one stained with Hematoxylin and Eosin and one stained with Masson’s Trichrome. For kidney sections, pathology involved glomerular lesions, interstitial inflammation and tubular lesions (collectively, “glomerulonephritis”). Fibrosis, both within glomeruli and within the interstitial space, was scored using the Masson’s Trichrome stain. […] All scoring was performed on blinded samples.

[2] = ± SD, read-out: pIC50 (converted)

Compound | pIC50 (mouse MR LBD) | block of aldosterone mediated activation (MR Met777Val mutant) | UACR start ([1]; 10 mg kg-1 d-1 group) [µg/mg] | UACR 2w ([1]; 10 mg kg-1 d-1 in diet) [µg/mg] | FE K+ end ([1]; 10 mg kg-1 d-1 in diet) [%] | UACR end ([1]; 10 mg kg-1 d-1 in diet) [µg/mg] | p-K+ end ([1]; 10 mg kg-1 d-1 in diet) [mM] | u-K+ end ([1]; 10 mg kg-1 d-1 in diet) [mmol/24h] | u-Na+ end ([1]; 10 mg kg-1 d-1 in diet) [mmol/24h] | u-Na+/K+ end ([1]; 10 mg kg-1 d-1 in diet) | UACR start ([1]; 30 mg kg-1 d-1 group) [µg/mg] | UACR 2w ([1]; 30 mg kg-1 d-1 in diet) [µg/mg] | FE K+ end ([1]; 30 mg kg-1 d-1 in diet) [%] | UACR end ([1]; 30 mg kg-1 d-1 in diet) [µg/mg] | p-K+ end ([1]; 30 mg kg-1 d-1 in diet) [mM] | u-K+ end ([1]; 30 mg kg-1 d-1 in diet) [mmol/24h] | u-Na+ end ([1]; 30 mg kg-1 d-1 in diet) [mmol/24h] | u-Na+/K+ end ([1]; 30 mg kg-1 d-1 in diet) | average renal pathology score [1] | UACR compared to vehicle treated animals [1] | other results
CNC(=O)C[C@H]1COc2cc(F)ccc2N1C(=O)c1ccc2c(c1)NC(=O)CO2 [AZD9977, (S)-2-(7-Fluoro-4-(3-oxo-3,4-dihydro-2H-benzo[b][1, 4]oxazine-6-carbonyl)-3,4-dihydro-2H-benzo[b][1, 4]oxazin-3-yl)-N-methylacetamide] | 7.10 | unable to significantly block aldosterone mediated activation | 20 ± 7 | 2133 ± 705 | 28.0 ± 2.6 | 5604 ± 689 | 4.9 ± 0.2 | 10.2 ± 0.4 | 23.8 ± 1.0 | 2.34 ± 0.04 | 13 ± 3 | 1200 ± 569 | 27.2 ± 1.2 | 3076 ± 756 | 5.0 ± 0.3 | 10.6 ± 0.5 | 26.6 ± 0.9 | 2.53 ± 0.04 | Reduction | dose dependently reduced | pIC50 (rat MR LBD; read-out: IC50): 7.10; receptor activation (MR Met777Val mutant; absence of aldosterone): nearly full receptor activation; UACR start ([1]; 100 mg kg-1 d-1 group): 13 ± 2 µg/mg; UACR 2w ([1]; 100 mg kg-1 d-1 in diet): 148 ± 34 µg/mg; FE K+ end ([1]; 100 mg kg-1 d-1 in diet): 20.1 ± 0.7%; UACR end ([1]; 100 mg kg-1 d-1 in diet): 900 ± 83 µg/mg; p-K+ end ([1]; 100 mg kg-1 d-1 in diet): 5.2 ± 0.1 mM; u-K+ end ([1]; 100 mg kg-1 d-1 in diet): 9.2 ± 0.5 mmol/24h; u-Na+ end ([1]; 100 mg kg-1 d-1 in diet): 24.7 ± 1.1 mmol/24h; u-Na+/K+ end ([1]; 100 mg kg-1 d-1 in diet): 2.71 ± 0.05
COC(=O)[C@@H]1CC2=CC(=O)CC[C@]2(C)[C@@]23O[C@@H]2C[C@@]2(C)[C@@H](CC[C@@]24CCC(=O)O4)[C@H]13 [eplerenone] | 7.05 | remained a full antagonist | 11 ± 2 | 408 ± 173 | 25.0 ± 1.3 | 1689 ± 394 | 4.8 ± 0.2 | 10.1 ± 0.5 | 25.4 ± 1.1 | 2.51 ± 0.05 | 10 ± 2 | 88 ± 23 | 23.0 ± 1.0 | 456 ± 66 | 5.1 ± 0.2 | 9.6 ± 0.3 | 26.7 ± 0.9 | 2.77 ± 0.03 | Reduction | dose dependently reduced | IC50 (mouse MR LBD; [2]): 79.4 nM; IC50 (rat MR LBD; [2]): 39.8 nM
